Test results: patent US7056938B1, “Method for scavenging radicals with urocanic acid, derivatives and analogues” (Academisch Ziekenhuis Bij De Univ., priority 1999, dated 2006)
Like-named read-outs stand apart in the source and are kept apart here. Marks after values point to notes of the source that are not given here.

How the values were obtained:
[1] = deoxyribose (dR) degradation test, hydroxyl radical scavenging; type: biochemical; conditions: for SECOND ORDER RATE CONSTANT for reaction with hydroxyl radicals: mean of n slopes, sodium phosphate buffer pH 7.2
Procedure: Trans-UCA, cis-UCA, related imidazoles and non-imidazole compounds were tested with regard to their ability to compete with deoxyribose to scavenge hydroxyl radicals. On exposure to hydroxyl radicals deoxyribose is degraded into malondialdehyde, which reacts with thiobarbituric acid to form a pink chromogen. Powerful hydroxyl-radical scavengers will compete with deoxyribose, resulting in a reduced amount of malondialdehyde. Ten compounds, UCA, UCA analogues, alanine and uric acid (FIG. 1) were tested on their ability to scavenge hydroxyl radicals.
Method: the deoxyribose (dR) degradation test. The test was analogous to an earlier described method. Briefly, the reactions were performed in 5 mL screw cap glass tubes in a final volume of 1.0 mL sodium phosphate buffer (50 mM; pH 7.2), containing 3.0 mM 2 deoxy-D-ribose, 0.5 mM hydrogen peroxide and one of the test compounds at graded concentrations. The reaction was started by the addition of premixed disodium EDTA and ferrous iron solution (final concentrations 0.5 mM and 0.2 mM, respectively). The mixture was left for 15 minutes at room temperature. After addition of 1.0 mL 1% thiobarbituric acid in 50 mM NaOH and 0.75 mL 2.8% trichloroacetic acid, the tubes were heated for 20 minutes in a boiling water bath. The pink color was read at 532 nm and reciprocal absorption values were plotted against the concentration of the test compound after subtraction of appropriate blanks. A series of six duplicate determinations from test compound dilutions was employed to construct a graph slope for the calculation of a rate constant value. The mean, SD, number of rate constants and the percentage of inhibition of deoxyribose degradation, calculated for each test compound, are listed. Results. All second-order rate constants for reaction with hydroxyl radicals and, in addition, the percentage inhibition of deoxyribose degradation with equimolar concentrations (3 mM) of scavenger are summarized in Table 1. Trans-UCA and cis-UCA are substantially more powerful in scavenging hydroxyl radicals (8.0 and 7.1×10^3 M^−1,s^−1, respectively), than the other 4-(5-)-substituted imidazoles, including L-histidine (2.6×10^2 M^−1,s^−1). L-histidine, the precursor of UCA, was included as a known moderate scavenger with structural similarities to UCA. L-alanine was used as a known poor scavenger. Trans-FAA was tested as a non-imidazole acrylic acid derivative, having a furan ring instead.
FIG. 2. A determination of the second order rate constants of trans-UCA and cis-UCA with hydroxyl radicals. The rate constant was derived from the slope of the line (k=slope×kdR×[dR]×A0), where A0 is the absorbance, measured in the absence of hydroxyl radical scavenger. KdR was taken as 3.1×10^9 M^−1,s^−1, derived from pulse radiolysis studies, and [dR]=3 mM. […] The other scavengers were studied similarly.

rat = conditions: oral rat; cited from earlier work
[2] = Fenton oxidation of UCA (Fe2+ / hydrogen peroxide, HPLC); type: physicochemical
Procedure: Trans-UCA and cis-UCA were separated from each other and from several UCA oxidation products on a 4.6×250 mm Alltima C18 and Luna C18 reversed-phase column (Alitech, Deerfield, Ill. and Phenomenex, Torrence, Calif., resp.) with a flow of 0.8 mL/min, delivered by P-3500 HPLC-pumps (Pharmacia, Uppsala, Sweden). Samples of 20 to 200 μL were injected by a Promis II autosampler (Spark Holland, Emmen, The Netherlands) and chromatographic data were recorded on an SP 4270 integrator (Spectra Physics, San Jose, Calif.). Peak area data from samples were only processed under identical HPLC circumstances. A UV-detector (Applied Biosystems, model 759A, Foster City, Calif.) was set for 226 nm detection. Isocratic elution was performed with 10 mM ammonium formate buffer, containing 0.2–0.8 mM tetrabutylammonium(TBA)formate and 1% acetonitrile (pH 7.2). Collected fractions were acidified with formic acid up to a final concentration of 100 mM and passed through C18 could phase extraction columns (J T Baker, Deventer, The Netherlands) in order to remove TBA.
[…] In addition, two hydroxyl-radical-generating systems with copper ions (Cu^2+) were used, consisting of 50 μM Cu^2+ with either 500 μM hydrogen peroxide or 5 mM ascorbic acid.
In the next series of experiments we studied the Fenton oxidation of UCA, representing another natural oxidation process. Trans-UCA and cis-UCA isomers were Fenton oxidized by ferorus ions (Fe^2+) and hydrogen peroxide at physiological concentrations. The initial hydrogen peroxide concentration was 500 μM and the ferrous ion concentration was varied from 0 to 500 μM. In all Fenton oxidation reactions the degree of UCA-isomer breakdown was calculated from their reduced peak areas. The oxidation reaction must have been completed within 2 minutes for all reaction conditions, because no further breakdown was observed after prolonged incubation.
When the Fenton reaction was performed in water instead of phosphate buffer, the oxidative breakdown of trans-UCA was enhanced irrespective of the UCA concentration. The turbidity seen in reactions performed in phoshate buffer (10 mM) with high Fe^2+ concentration (>100 μM) was probably due to the formation of insoluble, iron phosphate, thereby reducing the free availability of Fe^2+. Table 3 summarizes the difference between water and phosphate medium for trans-UCA at an initial concentration of 40 μM with respect to its breakdown and the formation of Fenton-oxidation products. Similarly to the photo-oxidation experiments, the peak areas of the 8 major oxidation products were summed. […] A close resemblance was observed between the chromatographic patterns of UCA Fenton oxidation products (not shown) and those of UCA photo-oxidation products. Three of them has been identified (vide infra).
In another series of experiments we studied the Fenton oxidation of UCA, representing another natural oxidation process. The initial hydrogen peroxide concentration was 500 μM in all experiments and the ferrous ion concentration was varied from 0 to 400 μM. Four sets of conditions were compared: […] in phosphate buffer pH 7.2, 2. Fe^2+ in phosphate buffer plus EDTA, 3. Fe^2− without buffer with a initial pH of 5.5–5.3 and 4. Cu^2+ in phosphate buffer plus ascorbate. The degree of breakdown was similar for both UCA isomers.

[3] = test system: ear swelling response from BALB/c mice; test: inhibition of contact hypersensitivity, ear swelling response; conditions: for inhibition of CHS (in words): as ammonium salts
[4] = [SCAVENGER] = [DEOXYRIBOSE] = 3 Mm

| SMILES | SECOND ORDER RATE CONSTANT for reaction with hydroxyl radicals [1] | hydroxyl radical scavenging ability (in words) [1] | INHIBITION of DEOXYRIBOSE DEGRADATION [1, 4] [%] | other results |
| --- | --- | --- | --- | --- |
| O=c1[nH]c(=O)c2[nH]c(=O)[nH]c2[nH]1 [Uric acid, uric acid] | 2.78e+10 M⁻¹ s⁻¹ |  |  | INHIBITION of DEOXYRIBOSE DEGRADATION ([1]; 15 min, 3 mM, pH 7.2): 91% |
| Cc1ncc[nH]1 [2-Methylimidazole, 2-methylimidazole] | 1.17e+10 M⁻¹ s⁻¹ | stronger hydroxyl radical scavengers |  | INHIBITION of DEOXYRIBOSE DEGRADATION ([1]; 15 min, 3 mM, pH 7.2): 76%; LD50 (rat): 1500 mg/kg |
| C[C@H](N)C(=O)O [L-Alanine, L-alanine] | 1e+08 M⁻¹ s⁻¹ |  | 2 |  |
| O=C(O)/C=C\c1c[nH]cn1 [cis-Urocanic acid] | 7.1e+09 M⁻¹ s⁻¹ |  | 64 | broken down by the unbuffered Fenton oxidation system ([2]; initial UCA concentration 250 μM, unbuffered): 75%; second order rate constant in the particular set of FIG. 2 ([1]; single set of FIG. 2, kdR 3.1×10^9, [dR]=3 mM): 7.33 ×10^9 M^−1,s^−1; ear swelling ([3]; 1 g/l, maximum normalized to 100%): 31% |
| O=C(O)CCc1c[nH]cn1 [Dihydrourocanic acid, 3-(imidazol-4-yl)-propionic acid] | 3.7e+09 M⁻¹ s⁻¹ | moderate scavenging ability |  | INHIBITION of DEOXYRIBOSE DEGRADATION ([1]; 15 min, 3 mM, pH 7.2): 34% |
| N[C@@H](Cc1c[nH]cn1)C(=O)O [L-Histidine, L-histidine] | 2.6^(c) × 10^9 M^−1 · s^−1 |  | 34 | rate constant for scavenging hydroxyl radicals [1]: 2.6e+09 M⁻¹ s⁻¹ |
| O=CC(=O)O [Glyoxylic acid, glyoxylic acid] |  |  |  | inhibition of CHS (in words) [3]: did not exhibit significant inhibition |
| O=C(O)Cc1c[nH]cn1 [Imidazole-4acetic acid, imidazole-4-acetic acid] | 2.2e+09 M⁻¹ s⁻¹ | moderate scavenging ability | 30 |  |
| O=Cc1c[nH]cn1 [ImCHO, imidazole-4-carboxaldehyde] |  |  |  | yield of ImCOOH from ImCHO as starting material ([2]; after Fenton- or photooxidation): ~100% |
| O=C(O)/C=C/c1ccco1 [trans-2-Furylacylic acid, trans-2-furylacrylic acid] | <1e+08 M⁻¹ s⁻¹ | very poor scavenging ability |  | INHIBITION of DEOXYRIBOSE DEGRADATION [1]: <2% |
| c1c[nH]cn1 [imidazole] |  | stronger scavengers than the UCA isomers |  |  |
| O=C(O)C(=O)O [oxalic acid] |  |  |  | inhibition of CHS (in words) [3]: did not exhibit significant inhibition |
